Experimental data as given in patent US20220062240A1, “METHODS OF TREATING CANCER USING A CLK INHIBITOR” (BioSplice Therapeutics, Inc., priority 2018, published 2022).
Like-named read-outs stand apart in the source and are kept apart here.

Assays:
[1] = tested on: ovarian cancer (4 cell lines); experiment: CellTiter-Glo Viability Assay, ovarian cancer; format: cell-based; conditions: Homo sapiens, inhibition of cancer cell proliferation
[2] = tested on: liver cancer (3 cell lines); experiment: CellTiter-Glo Viability Assay, liver cancer; format: cell-based; conditions: Homo sapiens, inhibition of cancer cell proliferation
[3] = tested on: haematopoietic & lymphoid tumors (13 cell lines); experiment: CellTiter-Glo Viability Assay, haematopoietic & lymphoid tumors; format: cell-based; conditions: Homo sapiens, inhibition of cancer cell proliferation
MCF7 = experiment: CellTiter-Glo Viability Assay, breast cancer; format: cell-based; conditions: Homo sapiens, 96 h; MCF7, breast cancer, four days; read-out: EC50
CAMA1 = experiment: CellTiter-Glo Viability Assay, breast cancer; format: cell-based; conditions: Homo sapiens, CAMA-1, 96 h; CAMA1, breast cancer, four days; read-out: EC50
BT-549 = experiment: CellTiter-Glo Viability Assay, breast cancer; format: cell-based; conditions: Homo sapiens, 96 h; BT-549, breast cancer, four days; read-out: EC50
T47D = experiment: CellTiter-Glo Viability Assay, breast cancer; format: cell-based; conditions: Homo sapiens, 96 h, breast cancer, four days, read-out: EC50
MDA-MB-231-Luc = experiment: CellTiter-Glo Viability Assay, breast cancer; format: cell-based; conditions: Homo sapiens, 96 h; MDA-MB-231-Luc, breast cancer, four days; read-out: EC50
ZR-75-1 = experiment: CellTiter-Glo Viability Assay, breast cancer; format: cell-based; conditions: Homo sapiens, 96 h; ZR-75-1, breast cancer, four days; read-out: EC50
HCC1599 = experiment: CellTiter-Glo Viability Assay, breast cancer; format: cell-based; conditions: Homo sapiens, 96 h; HCC1599, breast cancer, four days; read-out: EC50
DU4475 = experiment: CellTiter-Glo Viability Assay, breast cancer; format: cell-based; conditions: Homo sapiens, DU-4475, 96 h; DU4475, breast cancer, four days; read-out: EC50
[4] = tested on: prostate cancer (5 cell lines); experiment: CellTiter-Glo Viability Assay, prostate cancer; format: cell-based; conditions: Homo sapiens
CLK2 = molecular target: T1, CLK2 (Homo sapiens, UniProt P49760); experiment: CLK2 kinase activity assay (Z-lyte, Ser/Thr 6 peptide); format: biochemical; conditions: recombinant CLK2 kinase, ATP 60 μM; read-out: EC50
T1 construct: purchased Thermo Fisher (Life Technologies), Z'-LYTE Kinase Assay Kits
Procedure: All reactions were performed in duplicate.

all 50 cell lines = experiment: CellTiter-Glo Viability Assay, average across all cell lines; format: cell-based; conditions: Homo sapiens; across all 50 cell lines; read-out: average EC50 for inhibition of cancer cell proliferation
Outline: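 Human cancer cell lines from breast, colorectal, haematopoietic/lymphoid, liver, lung, ovarian, pancreatic and prostate tumours were seeded at 300-3,000 cells/well and exposed to compound in duplicate for four days at 37° C, 5% CO2. Viable cells were measured by ATP luminescence; EC50 values came from dose-response curves.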

[5] = tested on: colorectal cancer (6 cell lines); experiment: CellTiter-Glo Viability Assay, colorectal cancer; format: cell-based; conditions: Homo sapiens, inhibition of cancer cell proliferation
[6] = tested on: lung cancer (4 cell lines); experiment: CellTiter-Glo Viability Assay, lung cancer; format: cell-based; conditions: Homo sapiens, inhibition of cancer cell proliferation
[7] = tested on: pancreatic cancer (8 cell lines); experiment: CellTiter-Glo Viability Assay, pancreatic cancer; format: cell-based; conditions: Homo sapiens, inhibition of cancer cell proliferation
[8] = PA-1, PA1 cell line, read-out: Ovarian cancer, EC50 (μM) PA1
[9] = TOV112D, TOV-112D cell line, read-out: Ovarian cancer, EC50 (μM) TOV-112D
[10] = OV-90 cell line, read-out: Ovarian cancer, EC50 (μM) OV-90
[11] = OVCAR-3 cell line, read-out: Ovarian cancer, EC50 (μM) OVCAR-3
[12] = SNU-398, SNU398 cell line, read-out: Liver cancer, EC50 SNU398
[13] = HEPG2 cell line, read-out: Liver cancer, EC50 HEPG2
[14] = PLC/PRF/5 cell line, read-out: Liver cancer, EC50 PLC/PRF/5
[15] = DND41, DND-41 cell line, read-out: Haematopoietic & Lymphoid tumors, EC50 (μM) DND-41
[16] = MV4-11, MV-4-11 cell line, read-out: Haematopoietic & Lymphoid tumors, EC50 (μM) MV-4-11
[17] = Rec1, REC-1 cell line, read-out: Haematopoietic & Lymphoid tumors, EC50 (μM) REC-1
[18] = SU-DHL-4, SUDHL4 cell line, read-out: Haematopoietic & Lymphoid tumors, EC50 (μM) SUDHL4
[19] = HL-60 cell line, read-out: Haematopoietic & Lymphoid tumors, EC50 (μM) HL-60
[20] = JM1 cell line, read-out: Haematopoietic & Lymphoid tumors, EC50 (μM) JM1
[21] = JURKAT, Clone E6-1 cell line, read-out: Haematopoietic & Lymphoid tumors, EC50 (μM) JURKAT, Clone E6-1
[22] = JeKo-1 cell line, read-out: Haematopoietic & Lymphoid tumors, EC50 (μM) JeKo-1
[23] = KASUMI-1 cell line, read-out: Haematopoietic & Lymphoid tumors, EC50 (μM) KASUMI-1
[24] = Loucy cell line, read-out: Haematopoietic & Lymphoid tumors, EC50 (μM) Loucy
[25] = MOLT-4 cell line, read-out: Haematopoietic & Lymphoid tumors, EC50 (μM) MOLT-4
[26] = TF-1 cell line, read-out: Haematopoietic & Lymphoid tumors, EC50 (μM) TF-1
[27] = TOLEDO cell line, read-out: Haematopoietic & Lymphoid tumors, EC50 (μM) TOLEDO
[28] = DU-145, read-out: Prostate cancer EC50 Du-145
[29] = PC-3, PC3 cell line, inhibition of cancer cell proliferation, read-out: Prostate cancer EC50 PC3
[30] = 22Rv1 cell line, inhibition of cancer cell proliferation, read-out: Prostate cancer EC50 22Rv1
[31] = LNCap clone FGC cell line, inhibition of cancer cell proliferation, read-out: Prostate cancer EC50 LNCap clone FGC
[32] = VCaP (Sigma) cell line, inhibition of cancer cell proliferation, read-out: Prostate cancer EC50 VCaP (Sigma)
[33] = HCT-116, HCT116 cell line, read-out: Colorectal cancer, EC50 (μM) HCT116
[34] = HT-29, HT29 cell line, read-out: Colorectal cancer, EC50 (μM) HT29
[35] = SW-620, SW620 cell line, read-out: Colorectal cancer, EC50 (μM) SW620
[36] = DLD-1 cell line, read-out: Colorectal cancer, EC50 (μM) DLD-1
[37] = SW48 cell line, read-out: Colorectal cancer, EC50 (μM) SW48
[38] = A-427, A427 cell line, read-out: Lung cancer, EC50 (μM) A427
[39] = HCC78, HCC-78 cell line, read-out: Lung cancer, EC50 (μM) HCC-78
[40] = NCI-H460 cell line, read-out: Lung cancer, EC50 (μM) NCI-H460
[41] = NCI-H522 cell line, read-out: Lung cancer, EC50 (μM) NCI-H522
[42] = BXPC-3, BxPC3 cell line, read-out: Pancreatic cancer, EC50 BxPC3
[43] = CAPAN-1, Capan1 cell line, read-out: Pancreatic cancer, EC50 Capan1
[44] = Capan-2, Capan2 cell line, read-out: Pancreatic cancer, EC50 Capan2
[45] = MIA PaCa-2 cell line, read-out: Pancreatic cancer, EC50 MIA PaCa-2
[46] = PANC 05.04 cell line, read-out: Pancreatic cancer, EC50 PANC 05.04
[47] = PANC-1 cell line, read-out: Pancreatic cancer, EC50 PANC-1
[48] = UPAFII cell line, read-out: Pancreatic cancer, EC50 UPAFII

T1 sequence (P49760 whole entry): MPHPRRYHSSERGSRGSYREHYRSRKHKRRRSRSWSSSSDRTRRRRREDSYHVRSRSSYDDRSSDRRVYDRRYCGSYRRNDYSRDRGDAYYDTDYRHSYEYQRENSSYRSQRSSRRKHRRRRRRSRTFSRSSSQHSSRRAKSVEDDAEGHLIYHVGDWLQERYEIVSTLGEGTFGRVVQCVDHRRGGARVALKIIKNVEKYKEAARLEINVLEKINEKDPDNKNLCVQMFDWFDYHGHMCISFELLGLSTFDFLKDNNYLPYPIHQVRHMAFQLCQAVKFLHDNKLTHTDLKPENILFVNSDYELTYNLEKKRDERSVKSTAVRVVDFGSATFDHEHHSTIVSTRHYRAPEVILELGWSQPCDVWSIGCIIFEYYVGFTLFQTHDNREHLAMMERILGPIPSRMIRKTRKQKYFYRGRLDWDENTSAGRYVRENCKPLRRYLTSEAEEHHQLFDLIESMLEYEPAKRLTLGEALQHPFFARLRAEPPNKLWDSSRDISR

## CN1CCN(c2cc(C(=O)Nc3cc4cc(-c5cnn(C)c5)c(F)cc4cn3)ccn2)CC1 [Compound 69]
[1]; [8]
  EC50: 0.195 µM
[1]; [9]
  EC50: 0.233 µM
[1]; [10]
  EC50: 0.901 µM
[1]; [11]
  EC50: 0.406 µM
[2]; [12]
  EC50: 166 nM
[2]; [13]
  EC50: 372 nM
[2]; [14]
  EC50: 864 nM
[3]; [15]
  EC50: 0.225 µM
[3]; [16]
  EC50: 0.101 µM
[3]; [17]
  EC50: 0.11 µM
[3]; [18]
  EC50: 0.498 µM
[3]; [19]
  EC50: 0.522 µM
[3]; [20]
  EC50: 0.122 µM
[3]; [21]
  EC50: 0.5 µM
[3]; [22]
  EC50: 0.458 µM
[3]; [23]
  EC50: 1 µM
[3]; [24]
  EC50: 0.385 µM
[3]; [25]
  EC50: 0.343 µM
[3]; [26]
  EC50: 0.35 µM
[3]; [27]
  EC50: 0.132 µM
MCF7
  EC50: 3340 nM
CAMA1
  EC50: 1230 nM
BT-549
  EC50: 718 nM
T47D
  EC50: 1290 nM
MDA-MB-231-Luc
  EC50: 312 nM
ZR-75-1
  EC50: 412 nM
HCC1599
  EC50: 648 nM
DU4475
  EC50: 374 nM
[4]; [28]
  EC50: 748 nM
[4]; [29]
  EC50: 866 nM
[4]; [30]
  EC50: 316 nM
[4]; [31]
  EC50: 426 nM
[4]; [32]
  EC50: 3400 nM
CLK2
  EC50: 1.9 nM
All 50 cell lines
  EC50: 636 nM
[5]; [33]
  EC50: 0.156 µM
[5]; [34]
  EC50: 0.318 µM
[5]; [35]
  EC50: 0.125 µM
[5]; [36]
  EC50: 0.265 µM
[5]; [37]
  EC50: 0.131 µM
[5]; SW480 cell line, read-out: Colorectal cancer, EC50 (μM) SW480
  EC50: 0.19 µM
[6]; [38]
  EC50: 0.756 µM
[6]; [39]
  EC50: 0.666 µM
[6]; [40]
  EC50: 0.922 µM
[6]; [41]
  EC50: 0.43 µM
[7]; [42]
  EC50: 918 nM
[7]; [43]
  EC50: 1020 nM
[7]; [44]
  EC50: 1420 nM
[7]; [45]
  EC50: 433 nM
[7]; [46]
  EC50: 664 nM
[7]; [47]
  EC50: 1160 nM
[7]; [48]
  EC50: 281 nM

## O=C1CCc2cccc(c2)-c2cncc(c2)NC(=O)c2n[nH]c3ccc(cc23)-c2cncc(c2)CN1 [Compound 62]
[1]; [8]
  EC50: > 10 µM
[1]; [9]
  EC50: > 10 µM
[1]; [10]
  EC50: > 10 µM
[1]; [11]
  EC50: 0.554 µM
[2]; [12]
  EC50: 473 nM
[2]; [13]
  EC50: > 10000 nM
[2]; [14]
  EC50: > 10000 nM
[3]; [15]
  EC50: 7.8 µM
[3]; [16]
  EC50: 0.19 µM
[3]; [17]
  EC50: > 10 µM
[3]; [18]
  EC50: > 10 µM
[3]; [19]
  EC50: > 10 µM
[3]; [20]
  EC50: > 10 µM
[3]; [21]
  EC50: > 10 µM
[3]; [22]
  EC50: 0.452 µM
[3]; [23]
  EC50: > 10 µM
[3]; [24]
  EC50: > 10 µM
[3]; [25]
  EC50: > 10 µM
[3]; [26]
  EC50: > 10 µM
[3]; [27]
  EC50: > 10 µM
MCF7
  EC50: > 10000 nM
CAMA1
  EC50: > 10000 nM
BT-549
  EC50: > 10000 nM
T47D
  EC50: > 10000 nM
MDA-MB-231-Luc
  EC50: > 10000 nM
ZR-75-1
  EC50: > 10000 nM
HCC1599
  EC50: 26 nM
DU4475
  EC50: 387 nM
[4]; [28]
  EC50: > 10000 nM
[4]; [29]
  EC50: > 10000 nM
[4]; [30]
  EC50: 7430 nM
[4]; [31]
  EC50: > 10000 nM
[4]; [32]
  EC50: > 10000 nM
CLK2
  EC50: 5.3 nM
All 50 cell lines
  EC50: 8550 nM
[5]; [33]
  EC50: > 10 µM
[5]; [34]
  EC50: > 10 µM
[5]; [35]
  EC50: > 10 µM
[5]; [36]
  EC50: > 10 µM
[5]; [37]
  EC50: 0.393 µM
[6]; [38]
  EC50: > 10 µM
[6]; [39]
  EC50: > 10 µM
[6]; [40]
  EC50: > 10 µM
[6]; [41]
  EC50: > 10 µM
[7]; [42]
  EC50: > 10000 nM
[7]; [43]
  EC50: > 10000 nM
[7]; [44]
  EC50: > 10000 nM
[7]; [45]
  EC50: > 10000 nM
[7]; [46]
  EC50: > 10000 nM
[7]; [47]
  EC50: > 10000 nM
[7]; [48]
  EC50: > 10000 nM
